Data published in PubChem BioAssay AID256 (DTP/NCI, 2004).
“And” between values parts separate entries of the source, which are not always exact repeats. Equal values may be shown once. Toxic doses and inconclusive results are not listed.

Test system: CD2F1 mice, L1210 leukemia ip, survival T/C
Experiment: NCI In Vivo Anticancer Drug Screen. Data for tumor model L1210 Leukemia (intraperitoneal) in CD2F1 (CDF1) mice
Settings: higher = longer survival
Summary of the method: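 Vehicle-treated tumor-bearing mice served as controls (C) for compound-treated mice (T). Reported figure is T divided by C.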

[1] = endpoint: mean survival time, dose: 100.0 mg/kg/injection, schedule: Q01DX009 (ip), vehicle: saline with Tween-80
[2] = endpoint: mean survival time, dose: 200.0 mg/kg/injection, schedule: Q01DX009 (ip), vehicle: saline with Tween-80
[3] = endpoint: mean survival time, dose: 400.0 mg/kg/injection, schedule: Q01DX009 (ip), vehicle: saline with Tween-80
[4] = endpoint: mean survival time, dose: 100.0 mg/kg/injection, schedule: Q04DX003 (ip), vehicle: saline with Tween-80
[5] = endpoint: mean survival time, dose: 200.0 mg/kg/injection, schedule: Q04DX003 (ip), vehicle: saline with Tween-80
[6] = endpoint: mean survival time, dose: 25.0 mg/kg/injection, schedule: Q01DX009 (ip), vehicle: saline with Tween-80
[7] = endpoint: mean survival time, dose: 50.0 mg/kg/injection, schedule: Q01DX009 (ip), vehicle: saline with Tween-80

In the case of `CCCC/C=N/NC(=O)c1ccc[n+](C)c1`, the T/C (endpoint: mean survival time, dose: 100.0 mg/kg/injection, schedule: Q04DX003 (ip), vehicle: saline) was 102 % of control, the T/C (endpoint: mean survival time, dose: 200.0 mg/kg/injection, schedule: Q04DX003 (ip), vehicle: saline) was 98 % of control and the T/C (endpoint: mean survival time, dose: 400.0 mg/kg/injection, schedule: Q04DX003 (ip), vehicle: saline) was 105 % of control.
With `C=CCCCCn1c2ccccc2c2c(C)c3cnccc3c(C)c21` the T/C [1] was 102 % of control, the T/C [2] was 102 % of control and the T/C [3] was 97 % of control.
For `NC(=O)c1ncc[nH]c1=O`, the T/C [4] was 103 % of control and the T/C [5] was 91 % of control.
With `Clc1ccc(COc2ccc(Cl)cc2Cn2ccnc2)c(Cl)c1` the T/C [1] was 101 % of control, the T/C [2] was 95 % of control and the T/C [3] was 98 % of control.
For `ClCCCN1CCCCC1CCl` (stereo not given), the T/C (endpoint: mean survival time, dose: 3.12 mg/kg/injection, schedule: Q04DX003 (ip), vehicle: saline) was 104 % of control, the T/C (endpoint: mean survival time, dose: 6.25 mg/kg/injection, schedule: Q04DX003 (ip), vehicle: saline) was 113 % of control and the T/C (endpoint: mean survival time, dose: 25.0 mg/kg/injection, schedule: Q04DX003 (ip), vehicle: saline) was 173 % of control.
With `Clc1cccc(N=Cc2ccc3c(c2)OCO3)c1Cl` the T/C (endpoint: mean survival time, dose: 100.0 mg/kg/injection, schedule: Q01DX001 (ip), vehicle: Klucel (hydroxypropylcellulose) (HPC)) was 100 % of control, the T/C (endpoint: mean survival time, dose: 200.0 mg/kg/injection, schedule: Q01DX001 (ip), vehicle: Klucel (hydroxypropylcellulose) (HPC)) was 97 % of control and the T/C (endpoint: mean survival time, dose: 400.0 mg/kg/injection, schedule: Q01DX001 (ip), vehicle: Klucel (hydroxypropylcellulose) (HPC)) was 103 % of control.
With `N#CCc1c(C(N)=O)ncn1C1OC(COP(=O)(O)O)C(O)C1O` (stereo not given) the T/C (endpoint: median survival time, dose: 12.5 mg/kg/injection, schedule: Q01DX005 (ip), vehicle: water) was 109 % of control, the T/C (endpoint: median survival time, dose: 25.0 mg/kg/injection, schedule: Q01DX005 (ip), vehicle: water) was 104 % of control and the T/C (endpoint: median survival time, dose: 50.0 mg/kg/injection, schedule: Q01DX005 (ip), vehicle: water) was 103 % of control. The T/C (endpoint: median survival time, dose: 100.0 mg/kg/injection, schedule: Q01DX005 (ip), vehicle: water) was 97 % of control and the T/C (endpoint: median survival time, dose: 200.0 mg/kg/injection, schedule: Q01DX005 (ip), vehicle: water) was 97 % of control.
In the case of `COC(=O)C1C2CC(C3OC23)C1C(=O)OC` (stereo not given), the T/C [1] was 100 % of control, the T/C [4] was 97 % of control and the T/C [2] was 115 % of control. For the same compound, the T/C [5] was 89 % of control, the T/C [3] was 102 % of control and the T/C (endpoint: mean survival time, dose: 400.0 mg/kg/injection, schedule: Q04DX003 (ip), vehicle: saline with Tween-80) was 103 % of control.
`Cc1ccccc1N=C=S` was tested, and the T/C (endpoint: mean survival time, dose: 12.5 mg/kg/injection, schedule: Q01DX009 (ip), vehicle: saline with Tween-80) was 98 % of control, the T/C [6] was 96 % of control and the T/C [7] was 106 % of control.
`Cc1ccc(NC(=O)Nc2ccc(Nc3ccccc3)cc2)c([N+](=O)[O-])c1` was tested, and the T/C (endpoint: mean survival time, dose: 100.0 mg/kg/injection, schedule: Q01DX009 (ip), vehicle: Klucel (hydroxypropylcellulose) (HPC)) was 89 % of control, the T/C (endpoint: mean survival time, dose: 200.0 mg/kg/injection, schedule: Q01DX009 (ip), vehicle: Klucel (hydroxypropylcellulose) (HPC)) was 92 % of control and the T/C (endpoint: mean survival time, dose: 400.0 mg/kg/injection, schedule: Q01DX009 (ip), vehicle: Klucel (hydroxypropylcellulose) (HPC)) was 89 % of control.
With `O=c1nc(Nc2ccccc2)ccn1C1OC(CO)C(O)C1O` (stereo not given) the T/C (endpoint: mean survival time, dose: 100.0 mg/kg/injection, schedule: Q01DX005 (ip), vehicle: distilled water + Tween-80) was 98 % of control, the T/C (endpoint: mean survival time, dose: 200.0 mg/kg/injection, schedule: Q01DX005 (ip), vehicle: distilled water + Tween-80) was 107 % of control and the T/C (endpoint: mean survival time, dose: 400.0 mg/kg/injection, schedule: Q01DX005 (ip), vehicle: distilled water + Tween-80) was 110 % of control.
In the case of `Cc1nc(N)sc1S(=O)(=O)F`, the T/C [6] was 97 % of control, the T/C [7] was 111 % of control and the T/C [1] was 94 % of control and 108 % of control. For the same compound, the T/C [2] was 101 % of control.
`C=C(C)COc1c(C)cc(C)cc1[N+](=O)[O-]` was tested, and the T/C [1] was 98 % of control, the T/C [2] was 100 % of control and the T/C [3] was 104 % of control.
`O=C1C=CC(=O)c2c(Cl)ccc(O)c21` was tested, and the T/C (endpoint: mean survival time, dose: 3.13 mg/kg/injection, schedule: Q04DX002 (ip), vehicle: other) was 102 % of control, the T/C (endpoint: mean survival time, dose: 6.25 mg/kg/injection, schedule: Q04DX002 (ip), vehicle: other) was 102 % of control and the T/C (endpoint: mean survival time, dose: 12.5 mg/kg/injection, schedule: Q04DX002 (ip), vehicle: other) was 96 % of control and 102 % of control.
For `C[Si](C)C(Cl)Cl`, the T/C (endpoint: mean survival time, dose: 75.0 mg/kg/injection, schedule: Q01DX009 (ip), vehicle: saline with Tween-80) was 96 % of control, the T/C (endpoint: mean survival time, dose: 150.0 mg/kg/injection, schedule: Q01DX009 (ip), vehicle: saline with Tween-80) was 98 % of control and the T/C (endpoint: mean survival time, dose: 300.0 mg/kg/injection, schedule: Q01DX009 (ip), vehicle: saline with Tween-80) was 102 % of control.
